Measurements as given in the supplement of paper PMC10307832.

Columns and labels:
Experiment in all cases: relative viability (nuclei count vs DMSO), 5 days (fraction); higher = more cells survive
Metformin + Bortezomib = compound: CN(C)C(=N)NC(=N)N [Metformin] + CC(C)C[C@H](NC(=O)[C@H](Cc1ccccc1)NC(=O)c1cnccn1)B(O)O [Bortezomib] (partner 0.002 µM)
In short: (§1)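 For relative viability, nuclei counts in treated wells were divided by those in vehicle wells. Lung cancer cell lines had been pin-tool dosed in 1536-well plates the day after seeding and cultured for 5 days, then fixed and stained in one step (final 0.05% Triton X-100, 1% formaldehyde, 1 ug/ml Hoechst) and imaged at 4×. Doses were one drug alone or a fixed anchor-drug dose plus five library-drug doses (not always all listed) in √10 steps, and values are duplicate-plate medians.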

Metformin + Decitabine = compound: CN(C)C(=N)NC(=N)N [Metformin] + Nc1ncn([C@H]2C[C@H](O)[C@@H](CO)O2)c(=O)n1 [Decitabine] (partner 2 µM)
In short: as §1

Apatinib + Luminespib = compound: N#CC1(c2ccc(NC(=O)c3cccnc3NCc3ccncc3)cc2)CCCC1 [Apatinib] + CCNC(=O)c1noc(-c2cc(C(C)C)c(O)cc2O)c1-c1ccc(CN2CCOCC2)cc1 [Luminespib] (partner 0.01 µM)
In short: as §1

Apatinib + Dasatinib = compound: N#CC1(c2ccc(NC(=O)c3cccnc3NCc3ccncc3)cc2)CCCC1 [Apatinib] + Cc1nc(Nc2ncc(C(=O)Nc3c(C)cccc3Cl)s2)cc(N2CCN(CCO)CC2)n1 [Dasatinib] (partner 0.075 µM)
In short: as §1

Row | Cell Line | relative viability (Metformin + Bortezomib; first compound 10 µM) | relative viability (Metformin + Bortezomib; first compound 31.62 µM) | relative viability (Metformin + Bortezomib; first compound 100 µM) | relative viability (Metformin + Bortezomib; first compound 316.23 µM) | relative viability (Metformin + Bortezomib; first compound 1000 µM) | relative viability (Metformin + Decitabine; first compound 10 µM) | relative viability (Metformin + Decitabine; first compound 31.62 µM) | relative viability (Metformin + Decitabine; first compound 100 µM) | relative viability (Metformin + Decitabine; first compound 316.23 µM) | relative viability (Metformin + Decitabine; first compound 1000 µM) | relative viability (Apatinib + Luminespib; first compound 0.08 µM) | relative viability (Apatinib + Luminespib; first compound 0.253 µM) | relative viability (Apatinib + Luminespib; first compound 0.8 µM) | relative viability (Apatinib + Luminespib; first compound 2.53 µM) | relative viability (Apatinib + Luminespib; first compound 8 µM) | relative viability (Apatinib + Dasatinib; first compound 0.08 µM) | relative viability (Apatinib + Dasatinib; first compound 0.253 µM) | relative viability (Apatinib + Dasatinib; first compound 0.8 µM) | relative viability (Apatinib + Dasatinib; first compound 2.53 µM) | relative viability (Apatinib + Dasatinib; first compound 8 µM)
1 | BEN | 1.08 | 1.18 | 0.775 | 0.993 | 0.511 | 0.768 | 0.777 | 0.646 | 0.661 | 0.752 | 0.478 | 0.348 | 0.385 | 0.336 | 0.229 | 0.251 | 0.27 | 0.245 | 0.242 | 0.265
2 | EKVX | 0.737 | 1.07 | 1.06 | 0.934 | 0.338 | – | 0.302 | 0.369 | 0.325 | 0.322 | 0.841 | 0.857 | 0.851 | 0.821 | 0.816 | 0.603 | 0.621 | 0.478 | 0.361 | 0.325
3 | NCI-H2347 | 1.09 | 1.1 | 1.23 | 1.09 | 0.641 | 0.532 | 0.597 | 0.605 | 0.573 | 0.578 | 0.501 | 0.415 | 0.404 | 0.416 | 0.789 | 0.343 | 0.26 | 0.371 | 0.276 | 0.352
4 | H3255 | 0.716 | 0.89 | 0.88 | 0.991 | 0.415 | 0.531 | 0.665 | 0.596 | 0.61 | 0.624 | 0.791 | 0.782 | 0.811 | 0.644 | 0.829 | 0.356 | 0.326 | 0.344 | 0.255 | 0.366
5 | LU99A | 0.96 | 1.06 | 0.988 | 0.903 | 1.04 | 0.798 | 0.765 | 0.723 | 0.735 | 0.849 | 0.294 | 0.302 | 0.221 | 0.241 | 0.213 | 0.526 | 0.565 | 0.523 | 0.486 | 0.416
6 | EPLC-272H | 0.837 | 0.91 | 0.907 | 0.909 | 1.22 | 0.383 | 0.415 | 0.426 | 0.38 | 0.507 | 0.898 | – | 0.92 | 0.329 | 0.201 | 0.382 | – | 0.358 | 0.355 | 0.335
7 | EMC-BAC-2 | 1.09 | 1.11 | 1.04 | 1.11 | 1.09 | 0.844 | 1.02 | – | 0.855 | 0.861 | 1.22 | 1.29 | 1.14 | 1.09 | 0.987 | 0.32 | 0.428 | 0.349 | 0.282 | 0.293
8 | NCI-H1355 | 1.1 | 1.18 | 1.14 | 1.17 | 1.24 | 0.402 | 0.285 | 0.332 | 0.355 | 0.372 | 0.672 | 0.809 | 0.761 | 0.647 | 0.563 | 0.682 | 0.791 | 0.687 | 0.621 | 0.614
9 | RERF-LC-KJ | 1.14 | 1.15 | 1.1 | 1.01 | 0.988 | 0.687 | 0.703 | 0.505 | 0.556 | 0.514 | 1.11 | 1.35 | 1.07 | 1.22 | 1.02 | 0.859 | 0.897 | 0.754 | 0.615 | 0.52
10 | NCI-H661 | 0.867 | 0.881 | 1.36 | 0.917 | 1.06 | 0.562 | 0.61 | 0.587 | 0.579 | 0.602 | 0.973 | 0.873 | 0.898 | 0.95 | 0.865 | 1.12 | 0.957 | 0.803 | 0.702 | 0.708
11 | SK-LU-1 | 1.45 | 1.2 | 1.1 | 1.06 | 1.27 | 0.567 | 0.571 | 0.64 | 0.507 | 0.615 | 0.196 | 0.201 | 0.202 | 0.182 | 0.186 | 0.182 | 0.207 | 0.184 | 0.167 | 0.175
12 | HARA | 1.2 | 1.07 | 1.19 | 1.13 | 1.18 | 0.722 | 0.498 | 0.581 | 0.621 | 0.68 | 0.928 | 0.875 | 0.419 | 0.6 | 0.678 | 0.373 | 0.242 | 0.209 | 0.213 | 0.248
13 | NCI-H1792 | – | 0.918 | 1.04 | 0.922 | 0.827 | 0.449 | 0.428 | 0.482 | 0.386 | 0.496 | 0.495 | 0.521 | 0.43 | 0.308 | 0.274 | 0.965 | 0.789 | 0.763 | 0.573 | 0.512
14 | HCC-827 | – | 0.952 | 1.12 | 0.919 | 0.925 | 0.321 | 0.315 | 0.312 | 0.322 | 0.364 | 0.765 | 0.704 | 0.391 | 0.777 | 0.566 | 0.287 | 0.326 | 0.273 | 0.236 | 0.231
15 | NCI-H2126 | 1 | 1.11 | 1.09 | 1.09 | 1.09 | 0.554 | 0.592 | 0.557 | 0.571 | 0.562 | 0.963 | 0.774 | 0.985 | 0.826 | 0.832 | 0.584 | 0.514 | 0.52 | 0.488 | 0.446
16 | ABC-1 | – | 0.294 | 0.334 | 0.277 | 0.344 | – | 1.12 | 1.2 | 1.54 | 0.548 | – | 0.907 | 0.646 | 0.554 | 0.553 | – | 0.631 | 0.492 | 0.509 | 0.484
17 | COR-L23 | 1.04 | 0.867 | 0.86 | 0.882 | 0.99 | 0.456 | 0.514 | 0.365 | 0.388 | 0.435 | 0.687 | 0.643 | 0.702 | 0.628 | 0.509 | 0.469 | 0.598 | 0.518 | 0.45 | 0.405
18 | NCI-H1915 | – | 1.01 | 0.985 | 0.961 | 1.02 | – | 0.263 | 0.255 | 0.245 | 0.269 | 0.891 | 0.852 | 0.737 | 0.692 | 0.544 | 0.323 | 0.32 | 0.293 | 0.321 | 0.36
19 | NCI-H23 | 1.07 | 1.04 | 1.04 | 1.11 | 1.28 | 0.273 | 0.276 | 0.285 | 0.324 | 0.328 | 0.23 | 0.22 | 0.211 | 0.2 | 0.213 | 0.799 | 0.837 | 0.694 | 0.727 | 0.611
20 | NCI-H596 | 1.05 | 1.13 | 1.3 | 1.27 | 1.21 | 1.17 | 1.12 | 1.06 | 1.01 | 1.11 | 1.09 | 1.2 | 0.926 | 0.97 | 0.903 | 0.634 | 0.564 | 0.556 | 0.564 | 0.555
21 | NCI-H1734 | 0.952 | 1.06 | 0.947 | 0.951 | 0.917 | 0.502 | 0.425 | 0.435 | 0.442 | 0.499 | 0.19 | 0.187 | 0.275 | 0.165 | 0.193 | 0.547 | 0.521 | 0.439 | 0.424 | 0.399
22 | NCI-H2405 | 0.55 | 1.01 | 0.972 | 0.924 | 0.613 | – | 0.783 | 0.756 | 0.677 | 0.64 | 0.675 | 0.695 | 0.653 | 0.621 | 0.491 | 0.215 | 0.207 | 0.202 | 0.159 | 0.192
23 | NCI-H727 | 1.05 | 0.756 | 1.02 | 0.774 | 0.934 | 0.789 | 0.897 | 0.89 | – | 1.1 | 0.307 | 0.31 | 0.393 | 0.387 | 0.233 | 0.374 | 0.372 | 0.346 | 0.29 | 0.42
24 | NCI-H2009 | 0.694 | 1.16 | 1.12 | 1 | 1.09 | 0.367 | 0.366 | 0.351 | 0.401 | 0.424 | 1.1 | 1.09 | 0.988 | 0.992 | 0.86 | 0.374 | 0.326 | 0.31 | 0.195 | 0.179
25 | NCI-H1666 | 0.789 | 0.942 | 0.71 | 0.828 | 0.864 | 0.66 | 0.713 | 0.649 | 0.619 | 0.823 | 0.948 | 1.07 | 1.04 | 0.983 | 1.05 | 0.931 | 0.803 | 0.796 | 0.703 | 0.713
26 | UMC-11 | 0.56 | 0.914 | 0.791 | 0.694 | 0.618 | 0.573 | 0.743 | 0.741 | 0.49 | 0.437 | 1.13 | 1.02 | 0.926 | 1.04 | 0.886 | 0.518 | 0.515 | 0.42 | 0.442 | 0.394
27 | NCI-H1755 | 0.861 | 0.913 | 0.843 | 0.783 | 0.896 | 0.685 | 0.535 | 0.643 | 0.644 | 0.635 | 0.295 | 0.695 | 0.524 | 0.491 | 0.479 | 0.524 | 0.484 | 0.451 | 0.394 | 0.399
